From ChEMBL document CHEMBL1177690, “Target-specific control of lymphoid-specific protein tyrosine phosphatase (Lyp) activity” (Bioorg Med Chem, 2010)

Assay: Inhibition of Lyp CCPGCC mutant expressed in Escherichia coli […]

Question: Which IC50 does the source give for `O=C(O)c1ccccc1-c1c2ccc(=O)c([As]3SCCS3)c-2oc2c([As]3SCCS3)c(O)ccc12` here?
Answer: 0.625 µM
